Experimental data published in ChEMBL document CHEMBL3774366, “Synthesis, and docking studies of phenylpyrimidine-carboxamide derivatives bearing 1H-pyrrolo[2,3-b]pyridine moiety as c-Met inhibitors” (Bioorg Med Chem, 2016).

test system: A549; assay: Cytotoxicity against human A549 cells after 72 hrs by MTT assay; details: Homo sapiens, A549, 72 h; call rule not given here

Compound	IC50 [µM]
Cc1ccc(-c2cc(C(=O)Nc3ccc(Oc4ccnc5[nH]ccc45)c(F)c3)ncn2)cc1	8.6
O=C(Nc1ccc(Oc2ccnc3[nH]ccc23)cc1)c1cc(-c2ccc(C(F)(F)F)cc2)ncn1	9.38
O=C(Nc1ccc(Oc2ccnc3[nH]ccc23)c(F)c1)c1cc(-c2ccc(Br)cc2)ncn1	6.98
O=C(Nc1ccc(Oc2ccnc3[nH]ccc23)cc1)c1nccc(-c2ccc(Cl)cc2)n1	22.4
COc1ccc(-c2cc(C(=O)Nc3ccc(Oc4ccnc5[nH]ccc45)c(F)c3)ncn2)cc1	4.21
O=C(Nc1ccc(Oc2ccnc3[nH]ccc23)cc1)c1cc(-c2ccccc2)ncn1	0.14
Cc1ccc(-c2ccnc(C(=O)Nc3ccc(Oc4ccnc5[nH]ccc45)cc3)n2)cc1	2.38
COc1ccc(-c2ccnc(C(=O)Nc3ccc(Oc4ccnc5[nH]ccc45)c(F)c3)n2)cc1	5.43
O=C(Nc1ccc(Oc2ccnc3[nH]ccc23)c(F)c1)c1cc(-c2ccc(F)cc2)ncn1	14.2
COc1ccc(-c2cc(C(=O)Nc3ccc(Oc4ccnc5[nH]ccc45)cc3)ncn2)cc1	4.41
O=C(Nc1ccc(Oc2ccnc3[nH]ccc23)c(F)c1)c1nccc(-c2ccc([N+](=O)[O-])cc2)n1	4.47
O=C(Nc1ccc(Oc2ccnc3[nH]ccc23)c(F)c1)c1nccc(-c2cccc(Cl)c2)n1	0.45
O=C(Nc1ccc(Oc2ccnc3[nH]ccc23)cc1)c1nccc(-c2cccc(Cl)c2)n1	4.12
O=C(Nc1ccc(Oc2ccnc3[nH]ccc23)c(F)c1)c1cc(-c2ccccc2)ncn1	0.18
O=C(Nc1ccc(Oc2ccnc3[nH]ccc23)cc1)c1cc(-c2ccc(Cl)cc2)ncn1	6.53
O=C(Nc1ccc(Oc2ccnc3[nH]ccc23)c(F)c1)c1cc(-c2ccc(C(F)(F)F)cc2)ncn1	2.22
O=C(Nc1ccc(Oc2ccnc3[nH]ccc23)c(F)c1)c1nccc(-c2ccc(Cl)cc2)n1	8.94
Cc1ccc(-c2cc(C(=O)Nc3ccc(Oc4ccnc5[nH]ccc45)cc3)ncn2)cc1	5.41
Cc1ccc(-c2ccnc(C(=O)Nc3ccc(Oc4ccnc5[nH]ccc45)c(F)c3)n2)cc1	1.15
O=C(Nc1ccc(Oc2ccnc3[nH]ccc23)cc1)c1cc(-c2ccc(Br)cc2)ncn1	9.87
O=C(Nc1ccc(Oc2ccnc3[nH]ccc23)c(F)c1)c1cc(-c2ccc(Cl)cc2)ncn1	3.36
COc1ccc(-c2ccnc(C(=O)Nc3ccc(Oc4ccnc5[nH]ccc45)cc3)n2)cc1	13.3
O=C(Nc1ccc(Oc2ccnc3[nH]ccc23)cc1)c1cc(-c2ccc(F)cc2)ncn1	13

same assay, conditions: a549

Compound	IC50
O=C(Nc1ccc(Oc2ccnc3[nH]ccc23)cc1)c1nccc(-c2ccc(F)cc2)n1	Not Active

biological target: Hepatocyte growth factor receptor (Homo sapiens, UniProt P08581); assay: Inhibition of c-Met (unknown origin) using FAM-labeled peptide substrate after 10 mins by mobility shift assay; details: not given
Sequence (P08581 whole entry): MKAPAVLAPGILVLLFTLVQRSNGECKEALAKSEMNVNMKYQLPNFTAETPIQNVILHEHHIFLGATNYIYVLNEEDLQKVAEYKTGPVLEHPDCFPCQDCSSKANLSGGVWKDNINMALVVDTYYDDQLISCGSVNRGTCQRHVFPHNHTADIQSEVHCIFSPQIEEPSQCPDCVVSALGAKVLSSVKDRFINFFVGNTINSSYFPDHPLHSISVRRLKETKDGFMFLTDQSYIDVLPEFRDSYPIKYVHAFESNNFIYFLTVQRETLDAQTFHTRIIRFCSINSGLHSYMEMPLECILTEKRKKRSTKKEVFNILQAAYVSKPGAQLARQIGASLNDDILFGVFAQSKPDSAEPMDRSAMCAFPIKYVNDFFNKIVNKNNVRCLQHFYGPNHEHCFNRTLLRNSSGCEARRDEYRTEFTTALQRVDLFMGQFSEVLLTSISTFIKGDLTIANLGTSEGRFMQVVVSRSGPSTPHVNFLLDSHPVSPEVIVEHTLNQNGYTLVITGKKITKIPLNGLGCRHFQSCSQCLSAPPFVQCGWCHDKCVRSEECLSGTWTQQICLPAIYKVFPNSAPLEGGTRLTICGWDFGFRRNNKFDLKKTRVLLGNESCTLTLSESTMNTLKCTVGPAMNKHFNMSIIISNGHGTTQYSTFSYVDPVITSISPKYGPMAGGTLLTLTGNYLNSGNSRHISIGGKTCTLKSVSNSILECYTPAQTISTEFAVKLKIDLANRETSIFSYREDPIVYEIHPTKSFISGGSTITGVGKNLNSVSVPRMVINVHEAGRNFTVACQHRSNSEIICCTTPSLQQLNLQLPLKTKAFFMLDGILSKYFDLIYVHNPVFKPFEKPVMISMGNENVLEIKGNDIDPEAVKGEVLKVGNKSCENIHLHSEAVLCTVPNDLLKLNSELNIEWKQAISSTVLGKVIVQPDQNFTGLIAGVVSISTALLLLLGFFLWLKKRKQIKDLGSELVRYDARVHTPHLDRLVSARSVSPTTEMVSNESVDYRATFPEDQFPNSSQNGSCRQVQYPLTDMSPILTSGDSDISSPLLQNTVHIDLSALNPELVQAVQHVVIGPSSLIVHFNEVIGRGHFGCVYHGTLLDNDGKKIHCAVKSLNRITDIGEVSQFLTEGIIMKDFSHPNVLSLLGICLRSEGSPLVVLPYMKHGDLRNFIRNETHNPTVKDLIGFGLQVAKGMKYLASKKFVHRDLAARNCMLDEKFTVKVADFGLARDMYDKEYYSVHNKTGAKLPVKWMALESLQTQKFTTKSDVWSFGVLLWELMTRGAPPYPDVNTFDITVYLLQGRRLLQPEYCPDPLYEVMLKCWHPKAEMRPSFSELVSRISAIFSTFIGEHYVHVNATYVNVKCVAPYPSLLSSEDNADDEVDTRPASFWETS

Compound	IC50 [µM]
O=C(Nc1ccc(Oc2ccnc3[nH]ccc23)cc1)c1cc(-c2ccccc2)ncn1	0.12
O=C(Nc1ccc(Oc2ccnc3[nH]ccc23)c(F)c1)c1nccc(-c2cccc(Cl)c2)n1	2.2
O=C(Nc1ccc(Oc2ccnc3[nH]ccc23)c(F)c1)c1cc(-c2ccccc2)ncn1	0.98
Cc1ccc(-c2ccnc(C(=O)Nc3ccc(Oc4ccnc5[nH]ccc45)c(F)c3)n2)cc1	3.4

test system: HeLa; assay: Cytotoxicity against human HeLa cells after 72 hrs by MTT assay; type: functional, cell-based; details: not given

Compound	IC50 [µM]
O=C(Nc1ccc(Oc2ccnc3[nH]ccc23)cc1)c1cc(-c2ccccc2)ncn1	0.4
O=C(Nc1ccc(Oc2ccnc3[nH]ccc23)c(F)c1)c1nccc(-c2cccc(Cl)c2)n1	3.35
O=C(Nc1ccc(Oc2ccnc3[nH]ccc23)c(F)c1)c1cc(-c2ccccc2)ncn1	2.86
Cc1ccc(-c2ccnc(C(=O)Nc3ccc(Oc4ccnc5[nH]ccc45)c(F)c3)n2)cc1	5.51

test system: HepG2; assay: Cytotoxicity against human HepG2 cells after 72 hrs by MTT assay; type: functional, cell-based; details: HepG2, 72 h

Compound	IC50 [µM]
O=C(Nc1ccc(Oc2ccnc3[nH]ccc23)cc1)c1cc(-c2ccccc2)ncn1	3.11
O=C(Nc1ccc(Oc2ccnc3[nH]ccc23)c(F)c1)c1nccc(-c2cccc(Cl)c2)n1	9.34
O=C(Nc1ccc(Oc2ccnc3[nH]ccc23)c(F)c1)c1cc(-c2ccccc2)ncn1	9.61
Cc1ccc(-c2ccnc(C(=O)Nc3ccc(Oc4ccnc5[nH]ccc45)c(F)c3)n2)cc1	16.4

test system: MCF7; assay: not given; details: not given

Compound	IC50
O=C(Nc1ccc(Oc2ccnc3[nH]ccc23)cc1)c1nccc(-c2ccc(Cl)cc2)n1	Not Active
O=C(Nc1ccc(Oc2ccnc3[nH]ccc23)c(F)c1)c1cc(-c2ccc(F)cc2)ncn1	Not Active
O=C(Nc1ccc(Oc2ccnc3[nH]ccc23)c(F)c1)c1nccc(-c2ccc([N+](=O)[O-])cc2)n1	Not Active
O=C(Nc1ccc(Oc2ccnc3[nH]ccc23)cc1)c1nccc(-c2ccc(F)cc2)n1	Not Active

test system: not listed separately; assay: cells; details: Homo sapiens, PC-3, 72 h
Description: Cytotoxicity against human PC3 cells after 72 hrs by MTT assay

Compound	IC50 [µM]
Cc1ccc(-c2cc(C(=O)Nc3ccc(Oc4ccnc5[nH]ccc45)c(F)c3)ncn2)cc1	24.9
O=C(Nc1ccc(Oc2ccnc3[nH]ccc23)cc1)c1cc(-c2ccc(C(F)(F)F)cc2)ncn1	2.16
O=C(Nc1ccc(Oc2ccnc3[nH]ccc23)c(F)c1)c1cc(-c2ccc(Br)cc2)ncn1	11.3
COc1ccc(-c2cc(C(=O)Nc3ccc(Oc4ccnc5[nH]ccc45)c(F)c3)ncn2)cc1	2.57
O=C(Nc1ccc(Oc2ccnc3[nH]ccc23)cc1)c1cc(-c2ccccc2)ncn1	0.24
Cc1ccc(-c2ccnc(C(=O)Nc3ccc(Oc4ccnc5[nH]ccc45)cc3)n2)cc1	6.14
COc1ccc(-c2ccnc(C(=O)Nc3ccc(Oc4ccnc5[nH]ccc45)c(F)c3)n2)cc1	14.1
COc1ccc(-c2cc(C(=O)Nc3ccc(Oc4ccnc5[nH]ccc45)cc3)ncn2)cc1	9.83
O=C(Nc1ccc(Oc2ccnc3[nH]ccc23)c(F)c1)c1nccc(-c2ccc([N+](=O)[O-])cc2)n1	12.1
O=C(Nc1ccc(Oc2ccnc3[nH]ccc23)c(F)c1)c1nccc(-c2cccc(Cl)c2)n1	1.38
O=C(Nc1ccc(Oc2ccnc3[nH]ccc23)cc1)c1nccc(-c2cccc(Cl)c2)n1	7.8
O=C(Nc1ccc(Oc2ccnc3[nH]ccc23)c(F)c1)c1cc(-c2ccccc2)ncn1	0.04
O=C(Nc1ccc(Oc2ccnc3[nH]ccc23)cc1)c1cc(-c2ccc(Cl)cc2)ncn1	15.6
O=C(Nc1ccc(Oc2ccnc3[nH]ccc23)c(F)c1)c1cc(-c2ccc(C(F)(F)F)cc2)ncn1	4.12
O=C(Nc1ccc(Oc2ccnc3[nH]ccc23)c(F)c1)c1nccc(-c2ccc(Cl)cc2)n1	14.6
Cc1ccc(-c2cc(C(=O)Nc3ccc(Oc4ccnc5[nH]ccc45)cc3)ncn2)cc1	9.88
Cc1ccc(-c2ccnc(C(=O)Nc3ccc(Oc4ccnc5[nH]ccc45)c(F)c3)n2)cc1	0.52
O=C(Nc1ccc(Oc2ccnc3[nH]ccc23)cc1)c1cc(-c2ccc(Br)cc2)ncn1	2.61
O=C(Nc1ccc(Oc2ccnc3[nH]ccc23)c(F)c1)c1cc(-c2ccc(Cl)cc2)ncn1	3.2
COc1ccc(-c2ccnc(C(=O)Nc3ccc(Oc4ccnc5[nH]ccc45)cc3)n2)cc1	17.3

test system: MCF7; assay: cells; details: Homo sapiens, MCF7, 72 h
Description: Cytotoxicity against human MCF7 cells after 72 hrs by MTT assay

Compound	IC50 [µM]
Cc1ccc(-c2cc(C(=O)Nc3ccc(Oc4ccnc5[nH]ccc45)c(F)c3)ncn2)cc1	6.73
O=C(Nc1ccc(Oc2ccnc3[nH]ccc23)cc1)c1cc(-c2ccc(C(F)(F)F)cc2)ncn1	6.24
O=C(Nc1ccc(Oc2ccnc3[nH]ccc23)c(F)c1)c1cc(-c2ccc(Br)cc2)ncn1	10.3
COc1ccc(-c2cc(C(=O)Nc3ccc(Oc4ccnc5[nH]ccc45)c(F)c3)ncn2)cc1	10.4
O=C(Nc1ccc(Oc2ccnc3[nH]ccc23)cc1)c1cc(-c2ccccc2)ncn1	0.02
Cc1ccc(-c2ccnc(C(=O)Nc3ccc(Oc4ccnc5[nH]ccc45)cc3)n2)cc1	6.41
COc1ccc(-c2ccnc(C(=O)Nc3ccc(Oc4ccnc5[nH]ccc45)c(F)c3)n2)cc1	8.96
COc1ccc(-c2cc(C(=O)Nc3ccc(Oc4ccnc5[nH]ccc45)cc3)ncn2)cc1	4.45
O=C(Nc1ccc(Oc2ccnc3[nH]ccc23)c(F)c1)c1nccc(-c2cccc(Cl)c2)n1	1.58
O=C(Nc1ccc(Oc2ccnc3[nH]ccc23)cc1)c1nccc(-c2cccc(Cl)c2)n1	10.2
O=C(Nc1ccc(Oc2ccnc3[nH]ccc23)c(F)c1)c1cc(-c2ccccc2)ncn1	4.64
O=C(Nc1ccc(Oc2ccnc3[nH]ccc23)cc1)c1cc(-c2ccc(Cl)cc2)ncn1	7.77
O=C(Nc1ccc(Oc2ccnc3[nH]ccc23)c(F)c1)c1cc(-c2ccc(C(F)(F)F)cc2)ncn1	2.84
O=C(Nc1ccc(Oc2ccnc3[nH]ccc23)c(F)c1)c1nccc(-c2ccc(Cl)cc2)n1	9.66
Cc1ccc(-c2cc(C(=O)Nc3ccc(Oc4ccnc5[nH]ccc45)cc3)ncn2)cc1	1.62
Cc1ccc(-c2ccnc(C(=O)Nc3ccc(Oc4ccnc5[nH]ccc45)c(F)c3)n2)cc1	7.17
O=C(Nc1ccc(Oc2ccnc3[nH]ccc23)cc1)c1cc(-c2ccc(Br)cc2)ncn1	3.84
O=C(Nc1ccc(Oc2ccnc3[nH]ccc23)c(F)c1)c1cc(-c2ccc(Cl)cc2)ncn1	26.9
COc1ccc(-c2ccnc(C(=O)Nc3ccc(Oc4ccnc5[nH]ccc45)cc3)n2)cc1	12.4
O=C(Nc1ccc(Oc2ccnc3[nH]ccc23)cc1)c1cc(-c2ccc(F)cc2)ncn1	15.9
